Series [1] concerns Ng invasion of and survival within PEX cells. Nature of the series: Gentamicin-survival assays: Ng invasion of and survival within PEX cells with estradiol, progesterone, Akt inhibitor. The class given is cell-based, Neisseria gonorrhoeae. How it is done: Progesterone (Pg) augments gonococcal invasion of and survival within PEX cells. […] Therefore, to more closely mimic the luteal phase of the menses cycle, when Pg concentrations fluctuate between 3 nM and 30 nM, the effect of Pg on Ng invasion of and survival within PEX cells was evaluated using a gentamicin-survival assays with 0.4 nM of estradiol (E2) and variable concentrations of Pg (FIG. 1)
Further studies were conducted to determine if Pg augmented the ability of gonococci to survive intracellularly within PEX cells. Following gentamicin treatment (to kill extracellular bacteria), infected cell monolayers were either lysed (releasing the invasive Ng) and serial dilutions were plated, or they were re-incubated in antibiotic free medium for 1 or 3 hours longer before plating the PEX cell lysate and quantitating colony forming units. Akt inhibitor VII was included or omitted from these experiments.

The nature of series [2]: Phase I oncology study of AR-12. The class given is in vivo, human. The source says:
AR-12 was originally investigated in a Phase I oncology study (27), an IND (IND #103799) was previously filed with the Food and Drug Administration (FDA), and an Investigational Medicinal Product Dossier (IMPD) was filed with the Medicines and Healthcare Products Regulatory Agency (MHRA Reference: 35725/0001/001-0001 [EudraCT Number: 2009-014285-25]) in the United Kingdom, which enabled the Phase I study entitled: “A Phase I Study of AR-12 (2-Amino-N-[4-[5-(2-phenanthrenyl)-3-(trifluoromethyl)-1H-pyrazol-1-yl]phenyl]-acetamide) in Adult Patients With Advanced or Recurrent Solid Tumors or Lymphoma, for Which No Standard Therapy Is Available”. […] Thirty-five patients were enrolled at nine dose levels. With the original formulation tested, the recommended oncology Phase II dose was 800 mg twice daily.
The half-life in humans is long and is estimated to be approximately 60 hours. […] This is a favorable property for the treatment of Ng, which is, with rare exception, a mucosal pathogen. AR-12 is slowly released from the tissue back into the bloodstream and slowly excreted, which explains its long half-life.

The nature of series [3]: Stability at ambient conditions (cGMP material). Format: physicochemical. The text has this: AR-12 was initially developed by Arno Therapeutics (Arno) in 2008 for an oncology indication. In support of this oncology program, Arno initiated an Investigational New Drug (IND) enabling toxicology program, which included standard Good Laboratory Practice (GLP) tests (e. g. genotoxicity), a battery of safety pharmacology studies, and 28-day general toxicity assessments performed in rats and dogs. Before Arno's involvement, the National Cancer Institute had generated preclinical ADME (i. e., absorption, distribution, metabolism, and excretion) and toxicology data in the mouse model as part of the Rapid Access to Intervention Development (RAID) program. AR-12 synthesis was optimized and scaled-up to approximately 50 kg (purity >99.5%; stability ≥24 months at ambient conditions) under Current Good Manufacturing Practices (cGMP) conditions in anticipation of continued clinical development in the oncology setting.

In series [4] the test system is Ng. Nature of the series: Antimicrobial disk diffusion assays. Details: species or system Neisseria gonorrhoeae. As to conditions: no human cells. The source says:
This effect was specific to infection of human cells in that AR-12 was not effective against the Ng by antimicrobial disk diffusion assays, which prohibit Ng growth on agar plates.
For orientation: In agar diffusion tests the substance spreads into inoculated agar from a disc or well.

Series [5] has as its system Ng strains 1291 and (MDR) WHO-M. Nature of the series: Modified gentamicin survival assay, drug added to established Ng infection of PEX cells. Format: cell-based, Neisseria gonorrhoeae. How it is done: Modified gentamicin survival assays were performed in which pex cells were challenged with our preferred laboratory Ng strain, 1291, or the MDR Ng strain, WHO-M (beta-lactam-, ciprofloxacin-, and rifampicin-resistant; plus a mtrR mutation that could effect resistance to other compounds (35)). Infections were allowed to proceed for 90 min to allow Ng to adhere to and invade PEX cells. Vehicle control, AR-12, ceftriaxone, or gentamicin was then added to established infections.
At the indicated times post-challenge, the infection medium was removed, the PEX cell monolayers were rinsed and lysed, and viable Ng were enumerated by counting CFUs after plating serial dilutions of the PEX cell lysates. The percentage of Ng that survived the test treatment was determined as a function of the infection inoculum. In this aspect, the units are colony forming units—percent survival calculated as: [(#CFU (x dilution factor)) divided by (number of bacteria used as the infection inoculum (˜typically 1×10^7 bacteria per ml))×100]. A significant reduction (at least about 300 fold) in viable Ng was observed following a 3-hour incubation with 10 μM AR-12 (FIG. 2A).
Concentrations of AR-12 tested are shown on the x-axis. “None” refers to vehicle control.

The conditions of series [6]: preclinical studies (ref. 36); cited from earlier work.
Where [7] appears, read: by 24 hours post-AR-12 treatment.

Some results are limits rather than exact numbers.

For the compound `CC(=O)[C@H]1CC[C@H]2[C@@H]3CCC4=CC(=O)CC[C@]4(C)[C@H]3CC[C@]12C` [Pg, Progesterone], the “gonococcal invasion of PEX cells” value in series [1] (0.4 nM estradiol, variable concentrations of Pg (FIG. 1A)) is reported as “increased with increasing concentrations of Pg”. Moreover, the “ability of gonococci to invade, as well as survive within, PEX cells” value in series [1] (presence of Pg, 1 or 3 hours post-invasion (FIG. 1B)) was “enhanced”.

As a reminder, the half-life is how long it takes for the measured level to halve. On to `NCC(=O)Nc1ccc(-n2nc(C(F)(F)F)cc2-c2ccc3c(ccc4ccccc43)c2)cc1` [AR-12, 2-amino-N-(4-(5-(phenanthren-2-yl)-3-(trifluoromethyl)-1H-pyrazol-1-yl)phenyl)acetamide], for which, in series [2] (doses appropriate in the oncology setting, human), the “dose limiting toxicities (DLT)” value was “fatigue, dizziness, and skin rash”. The half-life in series [2] (human, blood, oral dosage form, Phase I study, estimated, read-out: half-life in humans (converted)) was roughly 60 h. For the same compound, in series [2] (long-term oral exposures up to 33 weeks, phase I study), the safety profile entry is listed as “acceptable safety profile”. Moreover, in series [2] (original formulation, human), the “recommended oncology Phase II dose” value is given as 800 mg twice daily. In series [3], this compound showed a stability of no less than 24 months. Further, in series [4], the “effectiveness against Ng on agar plates” value was “not effective”. Besides, in series [5] (10 μM AR-12, 3-hour incubation, Ng-infected PEX cells (FIG. 2A)), the “reduction in viable Ng” value is “at least 300 fold”. Further, the “viable Ng recovered” value in series [5] (10 μM AR-12, 24 h (FIG. 2C)) is “no viable Ng were recovered”. In addition, the “reduction of the amount of viable Ng (CFU) compared to an untreated infection” value in series [5] (10 μM AR-12, after about 6 hours (FIG. 2E)) is listed as “at least 3 log”. Moreover, the “reduction of the amount of viable Ng (CFU) compared to an untreated infection” value in series [5] (10 μM AR-12, after about 24 hours (FIG. 2E)) is listed as “at least 7 log”. Further, the “reduction in the number of viable Ng” value in series [5] (AR-12 treatment 6 h, Ng-infected PEX cells (FIG. 2B)) is listed as “at least 600 fold”. In addition, in series [5] (setting [7]), the “killing of Ng (bactericidal effect)” value turned out to be 100% and the “spontaneous resistance to AR-12” value is recorded as “no spontaneous resistance”. Moreover, in series [6], the “accumulation in tissues relative to blood level concentrations” value is listed as “exceeding the blood level concentrations several fold” and the “blood brain barrier penetration” value is “rapid blood brain barrier penetration”.

Values taken from patent US10201526B2, “Compositions and methods for inhibiting the growth of neisseria gonorrhoeae” (Research Institute at Nationwide Children's Hospital, priority 2015, dated 2019).
